Test system: subjects with MDD
Experiment: SHAPS total score / anhedonia level (Example 6)
Type: in vivo, human
Settings: for SHAPS Total Score Change from Baseline LSMean (SE) / SHAPS Total Score LSMean Difference (SE) Treatment Placebo: MMRM; for SHAPS Total Score Effect Size: negative favors aticaprant
Text: To assess a potential effect on anhedonia, an anhedonia scale may be used. For example, the Snaith-Hamilton Pleasure Scale (SHAPS) analysis is a validated scale for the measurement of anhedonia. The SHAPS is a subject completed scale in which subjects score whether or not they experience pleasure in performing a list of activities or experiences. The SHAPS is a self-reported 14-item instrument, developed for the assessment of hedonic capacity. Subjects score whether they experience pleasure in performing a list of activities or experiences. Subjects can rate the answers as 1-4 where 1 indicates “Definitely agree”, 2 indicates “Agree”, 3 indicates “Disagree” and 4 indicates “Definitely disagree”. The subject's item responses are summed to provide a total score ranging from 14 to 56. A higher total SHAPS score indicates higher levels of current anhedonia. Physician/clinical judgment can be used to assess anhedonia separately or in conjunction with an anhedonia scale.
In some embodiments, the patient has moderate anhedonia. In other embodiments, the patient has severe anhedonia. An assessment of moderate or severe anhedonia is typically determined physician/clinical judgment and/or by one or more tests that provide insight into whether a patient has anhedonia. For example, the severity of the anhedonia may be determined using the SHAPS method. In some embodiments, a patient with moderate or severe anhedonia is considered to have a high level of anhedonia. For example, a patient with a SHAPS score of 38 or greater is considered to have moderate to severe anhedonia that can be considered a high level of anhedonia. In some embodiments, a high level of anhedonia is reflected by a SHAPS score of at least about 40, about 42, about 44, about 46, about 48, about 50, about 52, about 54, about 56, […]. A patient with mild or no anhedonia would be considered to have a low level of anhedonia that is assessed by physician/clinical judgment and/or one or more tests. For example, a patient with a SHAPS score of less than 38 is considered to have low anhedonia. In certain embodiments, a patient with mild anhedonia may have a SHAPS score of 20 to less than 38, for example, a SHAPS score of 20 to about 36, about 22 to about 36, about 24 to about 36, about 26 to about 36, about 26 to about 34, about 26 to about 32, about 26 to about 30, about 26 to about 28, about 28 to about 36, about 28 to about 36, about 30, to about 36, about 32 to about 36, about 34 to about 36, about 20 to about 34, about 22 to about 34, about 24 to about 34, about 26 to about 32, about 26 to about 30, about 26 to about 28, about 28 to about 36, about 28 to about 34, about 28 to about 32, about 28 to about 30, about 30 to about 36, about 30 to about 34, about 30 to about 32, about 32 to about 36, about 32 to about 34, or about 34 to about 36. Typically, a SHAPS score of less than 20 can be considered to correspond to normal hedonic functioning, and for purposes of this disclosure, would fall into the low category of anhedonia, e.g., a SHAPS score of less than 38.
iii. To investigate the effect of aticaprant versus placebo on depression related anhedonia as assessed by the SHAPS.
• (i) Depression: Montgomery-Åsberg Depression Rating Scale (MADRS), Clinical Global Impression-Severity (CGI-S), Symptoms of Major Depressive Disorder Scale (SMDDS), and Self-assessment of treatment experience (SATE) • (ii) Anhedonia: Snaith-Hamilton Pleasure Scale (SHAPS) • (iii) Anxiety: Structured Interview Guide for the Hamilton Anxiety scale (SIGH-A) and HAM-A6 • (iv) Effects on Cognition: The Cognitive and Physical Functioning Questionnaire (CPFQ) • (v) Safety assessments
Changes in SHAPS total score were analyzed with the same MMRM model used for MADRS total score. The estimated LS Mean difference with 80% 2-sided CI at treatment week 6 between aticaprant and placebo was −0.7 [−1.81, 0.41]. See, FIG. 7 and Tables 28 and 29 and FIG. 18. The corresponding p-value was 0.419.

[1] = eITT Analysis Set, Treatment Baseline
[2] = eITT Analysis Set, Treatment Week 1
[3] = eITT Analysis Set, Treatment Week 3
[4] = eITT Analysis Set, Treatment Week 4
[5] = eITT Analysis Set, Treatment Week 5
[6] = eITT Analysis Set, Treatment Week 6
[7] = eITT, Treatment Week 1, 10 mg adjunctive to SSRI/SNRI
[8] = eITT, Treatment Week 3, 10 mg adjunctive to SSRI/SNRI
[9] = eITT, Treatment Week 4, 10 mg adjunctive to SSRI/SNRI
[10] = eITT, Treatment Week 5, 10 mg adjunctive to SSRI/SNRI
[11] = eITT, Treatment Week 6, 10 mg adjunctive to SSRI/SNRI
[12] = fITT Analysis Set, Baseline/Day 22, Table 42
[13] = fITT Analysis Set, Treatment Baseline
[14] = fITT Analysis Set, Treatment Week 1
[15] = fITT Analysis Set, Treatment Week 3
[16] = fITT Analysis Set, Treatment Week 4
[17] = fITT Analysis Set, Treatment Week 5
[18] = fITT Analysis Set, Treatment Week 6

SMILES: Cc1cc(C)cc(C2CCCN2Cc2ccc(Oc3ccc(C(N)=O)cc3F)cc2)c1 (centres unmarked) [aticaprant, 3-fluoro-4-4-2-(3,5-dimethylphenyl)pyrrolidin-1-yl-methylphenoxybenzamide]
- SHAPS total score estimated LS mean difference between aticaprant and placebo, MMRM (Treatment Week 6, population not given, follows Table 29 (fITT)): −0.8
- Frequency of subjects: High Level of Anhedonia (SHAPS Total Score >= 38), % [1]: (43.33%)
- Frequency of subjects: Low Level of Anhedonia (20 <= SHAPS Total Score < 38), % [1]: 56.67%
- SHAPS Total Score Change from Baseline Mean (SD) [2]: −1.9
- SHAPS Total Score Mean (SD) [2]: 34.5
- SHAPS Total Score Change from Baseline LSMean (SE) [2]: −1.7
- SHAPS Total Score LSMean Difference (SE) Treatment Placebo [2]: −0.8 (0.86)
- SHAPS Total Score Change from Baseline Mean (SD) [3]: −3.4
- SHAPS Total Score Mean (SD) [3]: 33.0
- SHAPS Total Score Change from Baseline LSMean (SE) [3]: −3.2
- SHAPS Total Score LSMean Difference (SE) Treatment Placebo [3]: −1.4 (0.86)
- SHAPS Total Score Change from Baseline Mean (SD) [4]: −4.5
- SHAPS Total Score Mean (SD) [4]: 32.0
- SHAPS Total Score Change from Baseline LSMean (SE) [4]: −4.3
- SHAPS Total Score LSMean Difference (SE) Treatment Placebo [4]: −1.4 (0.86)
- SHAPS Total Score Change from Baseline Mean (SD) [5]: −4.3
- SHAPS Total Score Mean (SD) [5]: 32.4
- SHAPS Total Score Change from Baseline LSMean (SE) [5]: −4.0
- SHAPS Total Score LSMean Difference (SE) Treatment Placebo [5]: −0.5 (0.87)
- Frequency of subjects: High Level of Anhedonia (SHAPS Total Score >= 38), % [6]: (13.56%)
- Frequency of subjects: Low Level of Anhedonia (20 <= SHAPS Total Score < 38), % [6]: 81.36%
- Frequency of subjects: No Anhedonia (SHAPS Total Score < 20), % [6]: 5.08%
- SHAPS Total Score Change from Baseline Mean (SD) [6]: −4.6
- SHAPS Total Score Mean (SD) [6]: 31.9
- SHAPS Total Score Change from Baseline LSMean (SE) [6]: −4.4
- SHAPS Total Score LSMean Difference (SE) Treatment Placebo [6]: −0.7 (0.87)
- SHAPS Total Score Mean Change from Baseline (SD) [7]: −1.9 (4.30)
- SHAPS Total Score Mean Change to Placebo (SD pooled) [7]: −0.6 (3.77)
- SHAPS Total Score Effect Size (eITT, Treatment Week 1, vs placebo): −0.15
- SHAPS Total Score Mean Change from Baseline (SD) [8]: −3.4 (5.25)
- SHAPS Total Score Mean Change to Placebo (SD pooled) [8]: −1.2 (4.96)
- SHAPS Total Score Effect Size (eITT, Treatment Week 3, vs placebo): −0.25
- SHAPS Total Score Mean Change from Baseline (SD) [9]: −4.5 (5.89)
- SHAPS Total Score Mean Change to Placebo (SD pooled) [9]: −1.2 (5.21)
- SHAPS Total Score Effect Size (eITT, Treatment Week 4, vs placebo): −0.23
- SHAPS Total Score Mean Change from Baseline (SD) [10]: −4.3 (6.07)
- SHAPS Total Score Mean Change to Placebo (SD pooled) [10]: −0.4 (5.49)
- SHAPS Total Score Effect Size (eITT, Treatment Week 5, vs placebo): −0.08
- SHAPS total score estimated LS mean difference between aticaprant and placebo, MMRM (eITT, Treatment Week 6): −0.7
- SHAPS Total Score Mean Change from Baseline (SD) [11]: −4.6 (6.23)
- SHAPS Total Score Mean Change to Placebo (SD pooled) [11]: −0.4 (5.66)
- Frequency of subjects: Anhedonia (SHAPS Total Score >=20), % [12]: 98.8%
- Frequency of subjects: No Anhedonia (SHAPS Total Score < 20), % [12]: 1.2%
- Frequency of subjects: High Level of Anhedonia (SHAPS Total Score >= 38), % [13]: 36.14%
- Frequency of subjects: Low Level of Anhedonia (20 >= SHAPS Total Score <38), % [13]: 62.65%
- Frequency of subjects: No Anhedonia (SHAPS Total Score < 20), % (fITT Analysis Set, Treatment Baseline, Table 44): 1.2%
- SHAPS Total Score Mean (SD) [14]: 32.9
- SHAPS Total Score Mean Change to Placebo (SD pooled) [14]: −0.6 (3.82)
- SHAPS Total Score Change from Baseline Mean (SD) (fITT Analysis Set, Treatment Week 1 (Table 29)): −2.0
- SHAPS Total Score Mean Change from Baseline (SD) (fITT Analysis Set, Treatment Week 1 (Table 30)): −2.0 (4.05)
- SHAPS Total Score Change from Baseline LSMean (SE) [14]: −1.9
- SHAPS Total Score LSMean Difference (SE) Treatment Placebo [14]: −1.0 (0.72)
- SHAPS Total Score Effect Size [14]: −0.15
- SHAPS Total Score Mean (SD) [15]: 31.9
- SHAPS Total Score Mean Change to Placebo (SD pooled) [15]: −1.0 (5.09)
- SHAPS Total Score Change from Baseline Mean (SD) (fITT Analysis Set, Treatment Week 3 (Table 29)): −3.2
- SHAPS Total Score Mean Change from Baseline (SD) (fITT Analysis Set, Treatment Week 3 (Table 30)): −3.2 (5.07)
- SHAPS Total Score Change from Baseline LSMean (SE) [15]: −3.1
- SHAPS Total Score LSMean Difference (SE) Treatment Placebo [15]: −1.4 (0.73)
- SHAPS Total Score Effect Size [15]: −0.20
- SHAPS Total Score Mean (SD) [16]: 30.8
- SHAPS Total Score Mean Change to Placebo (SD pooled) [16]: −1.2 (5.08)
- SHAPS Total Score Change from Baseline Mean (SD) (fITT Analysis Set, Treatment Week 4 (Table 29)): −4.2
- SHAPS Total Score Mean Change from Baseline (SD) (fITT Analysis Set, Treatment Week 4 (Table 30)): −4.2 (5.70)
- SHAPS Total Score Change from Baseline LSMean (SE) [16]: −4.1
- SHAPS Total Score LSMean Difference (SE) Treatment Placebo [16]: −1.6 (0.73)
- SHAPS Total Score Effect Size [16]: −0.23
- SHAPS Total Score Mean (SD) [17]: 30.9
- SHAPS Total Score Mean Change to Placebo (SD pooled) [17]: −0.5 (5.24)
- SHAPS Total Score Change from Baseline Mean (SD) (fITT Analysis Set, Treatment Week 5 (Table 29)): −4.3
- SHAPS Total Score Mean Change from Baseline (SD) (fITT Analysis Set, Treatment Week 5 (Table 30)): −4.3 (5.70)
- SHAPS Total Score Change from Baseline LSMean (SE) [17]: −4.1
- SHAPS Total Score LSMean Difference (SE) Treatment Placebo [17]: −0.8 (0.73)
- SHAPS Total Score Effect Size [17]: −0.09
- Frequency of subjects: High Level of Anhedonia (SHAPS Total Score >= 38), % [18]: 10.39%
- Frequency of subjects: Low Level of Anhedonia (20 >= SHAPS Total Score <38), % [18]: 80.52%
- Frequency of subjects: No Anhedonia (SHAPS Total Score < 20), % [18]: 9.09%
- SHAPS Total Score Mean (SD) [18]: 30.5
- SHAPS Total Score Mean Change to Placebo (SD pooled) [18]: −0.5 (5.45)
- SHAPS Total Score Change from Baseline Mean (SD) (fITT Analysis Set, Treatment Week 6 (Table 29)): −4.7
- SHAPS Total Score Mean Change from Baseline (SD) (fITT Analysis Set, Treatment Week 6 (Table 30)): −4.7 (5.91)
- SHAPS Total Score Change from Baseline LSMean (SE) [18]: −4.5
- SHAPS Total Score LSMean Difference (SE) Treatment Placebo [18]: −0.8 (0.73)
- SHAPS Total Score Effect Size [18]: −0.08
- SHAPS total score mean change from treatment baseline (SD) (fITT, Treatment Week 6): −4.7 (5.91)
- SHAPS total score observed effect size (fITT, Treatment Week 6): 0.08
